Test results reported in publication PMC4979471 (Cell Death Discovery, 2015).
“Also recorded” adds a separate entry of the source.

Experiments:
[1] = system: human monocytic U937 cells; assay: TNF+zVAD-induced necroptosis, CellTiter-Glo; type: cell-based; settings: U-937, U937, overnight, read-out: IC50 blocking necroptosis
Description: (§1) Mouse fibrosarcoma L929 cells (ATCC# CCL-1) and human monocytic U937 cells (ATCC# CRL-1593.2) were cultured in RPMI media supplemented with 10% heat-inactivated FBS, 100 U/ml penicillin and […] streptomycin. BMDM were prepared from C57BL/6 mice by differentiation with 10 ng/ml M-CSF (R&D Systems) for 7 days and cultured in DMEM medium supplemented with 10% heat-inactivated FBS, 100 U/ml penicillin, 100 μg/ml streptomycin and 0.25 μg/ml amphotericin. Primary human neutrophils were isolated from human blood following the standard method comprised of sequential sedimentation in dextran, density centrifugation in Ficoll–Hypaque and lysis of contaminating red blood cells.
(§2) […] To evaluate the effect of RIP1 inhibitors, cells were pretreated with compound (dose–response) for 30 min. Induced cell death was evaluated 19–21 h later by measuring cellular ATP levels using CellTiter-Glo Luminescent Cell Viability assay (Promega, Fitchburg, WI, USA). To induce necroptosis in neutrophils, freshly isolated human neutrophils were stimulated with TNF (10 ng/ml), QVD-Oph (50 μM) and SMAC mimetic (100 nM). Induced cell death was evaluated as above.

[2] = system: mouse fibrosarcoma L929 cells; assay: TNF+zVAD-induced necroptosis, CellTiter-Glo; type: cell-based; settings: overnight, read-out: IC50 blocking necroptosis
Description: as §1, §2

[3] = system: primary mouse bone marrow-derived macrophages (BMDMs); assay: TNF+zVAD-induced necroptosis, CellTiter-Glo; type: cell-based; settings: BMDM, read-out: IC50 blocking necroptosis
Description: as §1
(§3) Necroptotic cell death was induced in BMDM, L929 and U937 cells with TNF in the presence of caspase inhibitor zVAD-FMK or QVD-Oph (BMDM: 50 ng/ml TNF+50 μM zVAD; L929: 100 ng/ml TNF+50 μM QVD; U937: 100 ng/ml TNF+25 μM QVD). To evaluate the effect of RIP1 inhibitors, cells were pretreated with compound (dose–response) for 30 min. Induced cell death was evaluated 19–21 h later by measuring cellular ATP levels using CellTiter-Glo Luminescent Cell Viability assay (Promega, Fitchburg, WI, USA). To induce necroptosis in neutrophils, freshly isolated human neutrophils were stimulated with TNF (10 ng/ml), QVD-Oph (50 μM) and SMAC mimetic (100 nM). Induced cell death was evaluated as above.

[4] = system: primary human neutrophils; assay: TNF, zVAD and SMAC mimetic-induced necroptosis, CellTiter-Glo; type: cell-based; settings: Neutrophil, read-out: IC50 blocking necroptosis
Description: as §1
as §3, with “To induce necroptosis in neutrophils, freshly isolated human neutrophils were stimulated with TNF (10 ng/ml), QVD-Oph (50 μM) and SMAC mimetic (100 nM).” left out

BMDM [5] = assay: TNF+cycloheximide-stimulated apoptosis (cell viability, Caspase 3/7); type: cell-based, mouse; settings: 100 nM
Description: Caspase 3/7 activity was measured at 6 h using the Caspase-Glo 3/7 assay (Promega).

BMDM [6] = assay: TNF-induced NFκB activation (IκB phosphorylation and degradation, Western blot); type: cell-based, mouse; settings: 100 nM
Text: Lysates prepared in 1× Cell Lysis Buffer (Cell Signaling, Danvers, MA, USA) containing protease and phosphatase inhibitors were separated on 4–12% SDS-PAGE and blotted onto nitrocellulose membrane (Invitrogen, Waltham, MA, USA). Blots were probed for IκB (9242, Cell Signaling), phospho-IκB (2859, Cell Signaling), and tubulin as a loading control.

[7] = Pharmacokinetic profile after i.p. administration; type: in vivo, C57BL/6 mice; settings: i.p., mice
Description: Briefly, pharmacokinetic studies were conducted using n=3 animals per group for each compound. […] Blood samples were obtained at various time points following intraperitoneal injection and diluted 1 : 1 with water prior to storage at −80 °C.
Prior to bioanalysis, samples were thawed and each analyte was isolated using a method based on protein precipitation. The resulting supernatant was injected into an LC/MS/MS system optimized for detection of the compound of interest. Data were reported as quantitative drug concentrations as determined by standard calibration curve analysis. Using these optimized conditions, the typical lower limit of quantitation achieved was 1.00 ng/ml for both compounds.

C57BL/6 mice = assay: TNF+zVAD-induced shock model (temperature loss); type: in vivo, mouse; settings: 15 min before TNF+zVAD
Description: Temperature was monitored over the course of 3 h by rectal probe.

human and murine cells = assay: RIP1-dependent cell death, summary statements; type: cell-based; settings: read-out: IC50 inhibiting RIP1-dependent cell death
Description: as §3

## CC(C)(C)C(=O)N1N=CC[C@H]1c1ccccc1 [GSK′963]
[1]
  IC50: 4 nM
[2]
  IC50: 1 nM
[3]
  IC50: 3 nM
[4]
  IC50: 0.9 nM
BMDM [5]
  effect on TNF+CHX-stimulated apoptosis: no measurable effects; also recorded: no effect
BMDM [6]
  effect on TNF-induced NFκB activation: no measurable effects; also recorded: no effect
[7]
  apparent half-life: greater than that for Nec-1
C57BL/6 mice; 0.2 mg/kg i.p.
  protection from TNF+zVAD-induced temperature loss: significant response
C57BL/6 mice; 2 mg/kg i.p.
  protection from TNF+zVAD-induced temperature loss: completely inhibit temperature loss; also recorded: complete protection
Human and murine cells
  IC50: 1 to 4 nM
